Source: patent US20060004088A1, “Furan derivatives for preventing and curing osteoporosis and pharmaceutical compositions containing the same” (OCT INC., priority 2002, published 2006)

System: osteoclast pregenitor cells
Test: Inhibition rates of furan derivatives versus osteoclast formation (TRAP staining)
Format: cell-based, mice
Conditions: TRAP-positive multinucleated cells, untreated control set as 100%
Protocol: First, bone marrow cells were isolated, as follow. After sacrificing 7-9 week female mice by cervical dislocation, femur and tibia were excised aseptically while removing attached soft tissues. After cutting both ends of long bones, 1 ml of an enzyme solution, containing 0.1% collagenase (Gibco), 0.05% trypsin and 0.5 mM EDTA (Gibco), was injected to the bone marrow cavity at one end using a syringe with a 26-guage needle, and bone marrow was then collected. After shaking the recovered bone marrow for 30 min, bone marrow cells were collected, and cultured in α-minimum essential medium (α-MEM) supplemented with 10% FBS for 24 hrs. Then, non-adherent cells were collected, which are osteoclast pregenitors, aliquotted onto culture plates at a density of 2×10^5 cells per well, and cultured for 8 days in α-MEM supplemented with 20 ng/ml of macrophage-colony stimulating factor (M-CSF, Peprotech, USA) and 30 ng/ml RANKL (Peprotech, USA). During the 8 days of culturing, the cells were treated with the Compound 1. Thereafter, osteoclast formation was investigated by fixing the cultured cells and then carrying out TRAP staining, as described in the following Experimental Example 2.2. In addition, resorption activity of osteoclasts was investigated by measuring the absorption area after removing osteoclasts in cultures in calcium phosphate-coated plates, as described in Experimental Example 2.3, below.
After cell culture, the adherent cells were washed with PBS, and TRAP staining was performed, as follows. After being fixed with citrate-acetate-formaldehyde for 5 min, the cells were incubated for 1 hr in acetate buffer (prewarmed at 37° C., pH 5.0) containing naphthol AS-BI phosphate, fast Garnet GBC and 7 mM tartrate buffer (pH 5.0). TRAP-positive multinucleated cells having 3 or more nuclei were considered as osteoclasts.
Osteoclast pregenitor cells were isolated, and their differentiation to mature osteoclasts was induced, according to the same method as in the Experimental Example 2-1, while treated with each of the furan derivatives of the present invention. According to the same method as in the Experimental Example 2-2, TRAP staining performed, and TRAP-positive multinucleated cells were counted. An inhibition rate of each furan derivative against osteoclast formation was expressed as percentage, wherein the number of stained cells in a control not treated the furan derivative was arbitrarily set as 100% (Tables 14 to 16).

| SMILES | Inhibition rate against osteoclast formation, % (0.1 μM) | Inhibition rate against osteoclast formation, % (1 μM) | Inhibition rate against osteoclast formation, % (10 μM) |
| --- | --- | --- | --- |
| O=Cc1ccc(COC(=O)Cc2ccccc2)o1 [Compound 32] | 0% | 23.3% | 50% |
| O=Cc1ccc(COC(=O)Cc2c(F)cccc2F)o1 [Compound 33] | 0% | 3.3% | 50% |
| O=Cc1ccc(COC(=O)Cc2c(F)cccc2Cl)o1 [Compound 34] | 0% | 16.7% | 36.7% |
| O=Cc1ccc(COC(=O)Cc2cccc(Cl)c2)o1 [Compound 35] | 0% | 23.33% | 43.33% |
| O=Cc1ccc(COC(=O)Cc2ccsc2)o1 [Compound 36] | 0% | 6.67% | 30% |
| O=Cc1ccc(COC(=O)Cc2cccc(F)c2)o1 [Compound 37] | 0% | 10% | 6.67% |
| O=Cc1ccc(COC(=O)Cc2ccc3ccccc3c2)o1 [Compound 38] | 0% | 23.33% | 20% |
| O=Cc1ccc(COC(=O)Cc2ccc(F)cc2F)o1 [Compound 39] | 0% | 10% | 56.67% |
| O=Cc1ccc(COC(=O)C(c2ccccc2)(c2ccccc2)c2ccccc2)o1 [Compound 40] | 0% | 16.67% | 43.33% |
| COc1cccc(F)c1CC(=O)OCc1ccc(C=O)o1 [Compound 41] | 0% | 6.67% | 56.67% |
| COc1ccc(F)c(CC(=O)OCc2ccc(C=O)o2)c1 [Compound 42] | 0% | 23.33% | 53.33% |
| O=Cc1ccc(COC(=O)Nc2cccc(Cl)c2)o1 [Compound 49] | 0% | 10% | 0% |
| O=Cc1ccc(COC(=O)Nc2ccc(Br)cc2)o1 [Compound 50] | 0% | 10% | 0% |
| CCCCNC(=O)OCc1ccc(C=O)o1 [Compound 53] | 0% | 10% | 36.67% |
| O=Cc1ccc(COC(=O)Nc2ccc(Cl)c(Cl)c2)o1 [Compound 54] | 0% | 0% | 10% |
| O=Cc1ccc(COC(=O)Nc2ccccc2Cl)o1 [Compound 55] | 0% | 20% | 20% |
| C=CCc1ccc(OCc2ccc(C(=O)OC)o2)c(OC)c1 [Compound 59] | 0% | 0% | 15.95% |
| COC(=O)c1ccc(COc2ccc(Cl)cc2Cl)o1 [Compound 60] | 0% | 0% | 32.75% |
| COC(=O)c1ccc(COc2ccccc2Cl)o1 [Compound 61] | 0% | 0% | 11.66% |
| COC(=O)c1ccc(COc2ccc(Cl)cc2[N+](=O)[O-])o1 [Compound 66] | 0% | 0% | 13.58% |
| COC(=O)c1ccc(COc2ccccc2[N+](=O)[O-])o1 [Compound 67] | 0% | 0% | 15.92% |

| SMILES | Inhibition rate against osteoclast formation, % (0.1 μM) | Inhibition rate against osteoclast formation, % (1 μM) | Inhibition rate against osteoclast formation, % (10 μM) |
| --- | --- | --- | --- |
| COC(=O)c1ccc(COc2cc(C)ccc2C(C)C)o1 [Compound 68] | 0% | 0% | – |
| COC(=O)c1ccc(COc2ccc3c(c2)CCC3)o1 [Compound 70] | 0% | 0% | 3.34% |
| COC(=O)c1ccc(COc2ccc(Cl)c(C)c2)o1 [Compound 75] | 0% | 0% | 0.78% |
| COC(=O)c1ccc(COc2ccc(I)cc2)o1 [Compound 79] | 0% | 0% | 34.65% |
| COC(=O)c1ccc(COc2ccc(Cl)cc2)o1 [Compound 80] | 0% | 0% | 15.19% |
| COC(=O)c1ccc(CN(C)C)o1 [Compound 85] | 0% | 0% | 3.75% |
| COC(=O)c1ccc(CNc2ccccc2)o1 [Compound 89] | 0% | 0% | 12.6% |
| COC(=O)c1ccc(CNC(C)(C)C)o1 [Compound 91] | 0% | 0% | 9.89% |
| COc1ccccc1OCc1ccc(C(=O)OC(C)C)o1 [Compound 94] | 0% | 0% | 5.9% |
| CC(C)OC(=O)c1ccc(COc2cc(Cl)ccc2Cl)o1 [Compound 95] | 0% | 0% | 0.97% |
| COc1ccccc1OCc1ccc(C(=O)Oc2ccc(Cl)cc2)o1 [Compound 97] | 0% | 0% | 12.75% |
| O=C(Oc1ccccc1)c1ccc(COc2ccccc2Cl)o1 [Compound 98] | 0% | 0% | 9.89% |
| CCCc1ccc(OCc2ccc(C(=O)O)o2)cc1 [Compound 100] | 0% | 0% | 10.46% |
| O=C(O)c1ccc(COc2ccc(F)cc2)o1 [Compound 102] | 0% | 0% | 5.05% |
| O=C(O)c1ccc(COc2ccc(Br)cc2)o1 [Compound 103] | 0% | 0% | 2.77% |
| O=C(O)c1ccc(COc2ccccc2Cl)o1 [Compound 107] | 0% | 0% | 32% |
| O=C(O)c1ccc(COc2ccccc2Br)o1 [Compound 108] | 0% | 0% | 14.72% |
| O=C(O)c1ccc(COc2cc(Cl)ccc2Cl)o1 [Compound 109] | 0% | 0% | 3.25% |
| O=C(O)c1ccc(COc2cccc(Cl)c2)o1 [Compound 112] | 0% | 0% | 7.79% |
| CC(C)c1ccc(OCc2ccc(C(=O)O)o2)cc1 [Compound 114] | 0% | 0% | 4.2% |
| O=C(O)c1ccc(COc2cccc3ccccc23)o1 [Compound 117] | 0% | 0% | 5.86% |
